Laboratory results: patent publication US20220144812A1, “QUINOLINE DERIVATIVES AND THEIR USE FOR THE TREATMENT OF CANCER” (Epizyme, Inc., priority 2019, published 2022)
pIC50: −log10 of the molar value. Where two headings read alike, the source gives them in different places.

Tests used:
EP300 (P300(1048-1664)) = target: T1, EP300 (P300(1048-1664)) (Homo sapiens, UniProt Q09472); test: Biochemical assay for EP300, SAMDI; conditions: EP300, SAMDI; read-out: EP300 Biochemistry IC50
T1 construct: P300(1048-1664)
T1 sequence (Q09472 1048-1664): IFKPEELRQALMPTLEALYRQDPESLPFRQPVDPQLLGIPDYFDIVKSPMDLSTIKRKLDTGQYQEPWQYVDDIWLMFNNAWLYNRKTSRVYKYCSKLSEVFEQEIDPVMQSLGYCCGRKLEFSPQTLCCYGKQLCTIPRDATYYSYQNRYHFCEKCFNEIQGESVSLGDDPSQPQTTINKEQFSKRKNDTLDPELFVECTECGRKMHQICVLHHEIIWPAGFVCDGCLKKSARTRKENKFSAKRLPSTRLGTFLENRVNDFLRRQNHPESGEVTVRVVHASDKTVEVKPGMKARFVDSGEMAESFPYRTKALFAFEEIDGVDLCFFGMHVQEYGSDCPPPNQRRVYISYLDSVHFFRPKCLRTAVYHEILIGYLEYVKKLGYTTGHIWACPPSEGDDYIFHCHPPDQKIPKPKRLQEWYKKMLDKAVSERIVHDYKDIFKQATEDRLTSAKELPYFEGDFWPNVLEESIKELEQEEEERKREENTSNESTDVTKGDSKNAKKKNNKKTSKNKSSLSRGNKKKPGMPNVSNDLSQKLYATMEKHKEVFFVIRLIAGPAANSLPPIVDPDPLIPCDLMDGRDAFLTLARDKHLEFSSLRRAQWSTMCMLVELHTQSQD
From the text: The following example describes materials and methods relating to a biochemical assay for EP300. IC50 values (micromolar (μM)) are summarized in Table 1, Table 2, and Table 3 under the column labeled: “EP300 Biochemistry IC50 (micromolar).”

[1] = tested on: H3K18Ac in HB-CLS-2 cells; test: H3K18AC in-cell western (ICW) assay; type: cell-based; conditions: H3K18Ac in-cell western, read-out: CREBBP ICW IC50
Summary of the method: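 HB-CLS-2 cells seeded 16–24 hours before 2 hr compound treatment at 37° C, 5% CO2, then methanol-fixed. H3K18Ac detected with rabbit monoclonal primary (overnight, 4° C) and 800CW anti-rabbit secondary; DRAQ5 stained DNA. Plates imaged at 700 and 800 nm for integrated intensity; IC50 in μM.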

647V cells = test: High throughput proliferation (HTP) assay; type: cell-based; conditions: high throughput proliferation, read-out: CREBBP HTP IC50
Summary of the method: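 Exponentially growing 647V cells in DMEM with 15% FBS were treated in triplicate with increasing compound concentrations at 37° C, 5% CO2. Viable cell number was read by CellTiter-Glo luminescence on day 7; IC50 in micromolar.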

CREBBP (1084-1701) = target: T2, CREBBP (1084-1701) (Homo sapiens, UniProt Q92793); test: Biochemical assay for CREBBP (1084-1701), SAMDI; conditions: SAMDI, read-out: CREBBP Biochemistry IC50
T2 construct: measured in the following biochemical assay using CREBBP (1084-1701); purchased
Summary of the method: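 CREBBP (1084-1701) preincubated with compound 30 min at RT, then substrate mix (biotin-H3 11-25 K14R/K23R peptide, acetyl-CoA) added for 30 min at RT. Reaction stopped with formic acid, neutralised with sodium bicarbonate. Peptide acetylation read by SAMDI mass spectrometry to derive IC50.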

[2] = Homo sapiens, 647-V, 647V cells

T2 sequence (Q92793 1084-1701): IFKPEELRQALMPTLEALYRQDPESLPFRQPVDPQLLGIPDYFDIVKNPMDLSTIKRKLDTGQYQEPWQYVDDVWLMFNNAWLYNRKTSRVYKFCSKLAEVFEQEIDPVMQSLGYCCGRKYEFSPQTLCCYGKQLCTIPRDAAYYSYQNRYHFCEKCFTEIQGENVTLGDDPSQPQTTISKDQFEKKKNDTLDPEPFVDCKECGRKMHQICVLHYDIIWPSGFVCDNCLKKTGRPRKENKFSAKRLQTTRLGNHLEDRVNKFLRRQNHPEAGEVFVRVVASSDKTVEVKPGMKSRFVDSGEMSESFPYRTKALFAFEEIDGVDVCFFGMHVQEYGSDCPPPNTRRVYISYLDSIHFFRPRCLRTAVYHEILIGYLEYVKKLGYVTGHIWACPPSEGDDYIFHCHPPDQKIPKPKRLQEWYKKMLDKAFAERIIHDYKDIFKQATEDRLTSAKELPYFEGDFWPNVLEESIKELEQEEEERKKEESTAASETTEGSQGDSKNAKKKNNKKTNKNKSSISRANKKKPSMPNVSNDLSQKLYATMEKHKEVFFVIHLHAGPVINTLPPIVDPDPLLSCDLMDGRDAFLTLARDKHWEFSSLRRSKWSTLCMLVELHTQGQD

Structure (SMILES) | pIC50 (EP300 (P300(1048-1664))) | pIC50 [1] | pIC50 (CREBBP (1084-1701)) | pIC50 ([1]; HB-CLS-2 cells) | pIC50 (647V cells) | pIC50 (647V cells; Homo sapiens, 647-V) | pIC50 (647V cells; [2]) | pIC50 (647V cells; 647V cells)
CCn1ncc(CN(C)C(=O)c2nc(-c3cccc(-c4ccn[nH]4)c3)nc3ccc(Cl)cc23)c1C [Compound 145] | 5.72 | 5.19 | 5.55 | – | 5.00 | – | – | –
CCn1ncc(CN(C)C(=O)c2cc(-c3cnc(CN(C)C)[nH]3)nc3ccc(Cl)cc23)c1C [Compound 146] | 5.64 | 5.19 | 5.40 | – | – | 5.00 | – | –
CCn1ncc(CN(C)C(=O)c2nc(-c3ccc(OCCCNC(=O)OC(C)(C)C)c(C)c3)nc3ccc(Cl)cc23)c1C [Compound 147] | 5.10 | 5.15 | 6.33 | – | 5.51 | – | – | –
CCn1ncc(CN(C)C(=O)c2nc(-c3ccc(NC4CCNCC4)cn3)nc3ccc(Cl)cc23)c1C [Compound 153] | 6.46 | 5.05 | 6.41 | – | 5.31 | – | – | –
CCCOc1ccc(-c2nc(C(=O)N(C)Cc3cnn(CC)c3C)c3cc(Cl)ccc3n2)cc1Cl [Compound 157] | 5.55 | 5.02 | 5.49 | – | 5.25 | – | – | –
CCn1ncc(CN(C)C(=O)c2nc(N3CCc4[nH]c(C)nc4C3)nc3ccc(Cl)cc23)c1C [Compound 159] | 5.11 | 5.00 | 4.70 | – | – | 5.00 | – | –
CCn1ncc(CN(C)C(=O)c2nc(N3CCc4cn[nH]c4C3)nc3ccc(Cl)cc23)c1C [Compound 161] | 5.21 | 4.96 | 4.77 | – | – | 4.96 | – | –
CCn1ncc(CN(C)C(=O)c2nc(-c3cc(C(=O)NCCCN4CCCC4)n(Cc4ccc(OC)cc4)n3)nc3ccc(Cl)cc23)c1C [Compound 163] | 4.46 | 4.92 | 4.21 | – | – | 5.57 | – | –
CCn1ncc(CN(C)C(=O)c2cc(-c3ccc(OCCCO)cn3)nc3ccc(Cl)cc23)c1C [Compound 166] | 4.82 | 4.89 | 4.55 | – | – | 4.96 | – | –
CCn1ncc(CN(C)C(=O)c2cc(-n3cc4c(n3)CNCC4)nc3ccc(Cl)cc23)c1C [Compound 168] | 5.24 | 4.89 | 4.74 | – | 4.74 | – | – | –
CCn1ncc(CN(C)C(=O)c2nc(-c3cc(C(=O)NCCN4CCCC4)on3)nc3ccc(Cl)cc23)c1C [Compound 169] | 4.82 | 4.89 | 5.08 | – | – | 5.17 | – | –
CCn1ncc(CN(C)C(=O)c2nc(-c3cc(CN(C)Cc4ccc(OC)cc4)nn3C)nc3ccc(Cl)cc23)c1C [Compound 176] | 4.36 | 4.80 | 4.07 | – | – | 5.09 | – | –
CCn1ncc(CN(C)C(=O)c2nc(-c3cc(C(=O)NCCN4CCCC4)n(Cc4ccc(OC)cc4)n3)nc3ccc(Cl)cc23)c1C [Compound 177] | 4.36 | 4.80 | 4.27 | – | – | 5.47 | – | –
CCn1ncc(CN(C)C(=O)c2nc(-n3cc4c(n3)CNCC4)nc3ccc(Cl)cc23)c1C [Compound 179] | 4.26 | 4.74 | 3.94 | – | – | 4.70 | – | –
CCn1ncc(CN(C)C(=O)c2cc(-c3cn(C)c(OC)n3)nc3cc(Cl)ccc23)c1C [Compound 185] | 4.25 | 4.70 | 4.01 | – | – | 4.70 | – | –
CCn1ncc(CN(C)C(=O)c2cc(-n3ncc4c3CNCC4)nc3ccc(Cl)cc23)c1C [Compound 186] | 4.19 | 4.70 | 3.94 | – | – | 5.11 | – | –
CCn1ncc(CN(C)C(=O)c2nc(N3CCn4cc(C)nc4C3)nc3ccc(Cl)cc23)c1C [Compound 220] | 4.00 | – | 3.85 | 4.70 | – | – | 4.70 | –
CCn1ncc(CN(C)C(=O)c2cc(-c3cn[nH]c3N)nc3ccc(Cl)cc23)c1C [Compound 227] | 4.39 | – | 4.30 | 4.70 | – | – | 4.70 | –
CCn1ncc(CN(C)C(=O)c2nc(-c3cc(C)cc(NC4CCNC4)c3)cc3ccc(Cl)cc23)c1C (stereo not drawn) [Compound 383] | 8.29 | – | 7.77 | 6.72 | – | – | – | 7.20
CCn1ncc(CN(C)C(=O)c2cc(-c3ccc4c[nH]nc4n3)nc3ccc(Cl)cc23)c1C [Compound 386] | 8.00 | – | 7.82 | 6.70 | – | – | 6.51 | –

More lines, main results first:

pIC50 (EP300 (P300(1048-1664))) | pIC50 [1] | pIC50 (CREBBP (1084-1701)) | pIC50 ([1]; HB-CLS-2 cells) | Structure (SMILES) | pIC50 (647V cells) | pIC50 (647V cells; Homo sapiens, 647-V) | pIC50 (647V cells; [2]) | pIC50 (647V cells; 647V cells)
4.96 | 5.14 | 5.12 | – | CCn1ncc(CN(C)C(=O)c2nc(-c3ccc(OCCN(C)C(=O)OC(C)(C)C)c(OC)c3)nc3ccc(Cl)cc23)c1C [Compound 148] | – | 5.41 | – | –
5.17 | 5.11 | 4.85 | – | CCn1ncc(CN(C)C(=O)c2cc(-c3cnc(CNC)[nH]3)nc3ccc(Cl)cc23)c1C [Compound 149] | – | 5.04 | – | –
5.55 | 5.06 | 5.66 | – | CCn1ncc(CN(C)C(=O)c2nc(-c3ccc(OCCN(C)C(=O)OC(C)(C)C)c(Cl)c3)nc3ccc(Cl)cc23)c1C [Compound 151] | – | 5.49 | – | –
5.44 | 5.05 | 5.44 | – | CCn1ncc(CN(C)C(=O)c2nc(-c3ccc(OCCNC)c(Cl)c3)nc3ccc(OC)cc23)c1C [Compound 152] | – | 5.80 | – | –
4.59 | 5.03 | 4.46 | – | CCn1ncc(CN(C)C(=O)c2nc(-c3ccnc(NC)c3)nc3ccc(Cl)cc23)c1C [Compound 155] | – | 5.30 | – | –
4.89 | 5.02 | 4.47 | – | CCn1ncc(CN(C)C(=O)c2nc(-c3ccc(C(=O)NC)cc3)nc3ccc(Cl)cc23)c1C [Compound 156] | – | 5.02 | – | –
4.70 | 4.96 | 4.49 | – | CCn1ncc(CN(C)C(=O)c2nc(-c3cc(C(=O)NC4CCN(C)CC4)nn3C)nc3ccc(Cl)cc23)c1C [Compound 160] | – | 5.29 | – | –
4.52 | 4.89 | 4.28 | – | CCn1ncc(CN(C)C(=O)c2nc(-c3ccc(C(=O)NC)c(C)c3)nc3ccc(Cl)cc23)c1C [Compound 164] | – | 5.01 | – | –
5.10 | 4.89 | 4.74 | – | CCn1ncc(CN(C)C(=O)c2nc(N3CCc4[nH]cnc4C3)nc3ccc(Cl)cc23)c1C [Compound 167] | – | 4.96 | – | –
4.89 | 4.85 | 4.24 | – | CCn1ncc(CN(C)C(=O)c2nc(-c3cn(C)cn3)nc3ccc(Cl)cc23)c1C [Compound 170] | – | 5.16 | – | –
5.44 | 4.85 | 5.07 | – | CCn1ncc(CN(C)C(=O)c2nc(-c3ccc(-c4ccn[nH]4)cc3)nc3ccc(Cl)cc23)c1C [Compound 171] | – | 5.11 | – | –
5.11 | 4.85 | 4.77 | – | CCn1ncc(CN(C)C(=O)c2nc(-c3ccc(OCCO)cn3)nc3ccc(Cl)cc23)c1C [Compound 173] | – | 4.96 | – | –
4.72 | 4.72 | 4.15 | – | CCn1ncc(CN(C)C(=O)c2nc(-n3cc(C)cn3)nc3ccc(Cl)cc23)c1C [Compound 182] | – | 5.11 | – | –
4.44 | – | 4.30 | 4.70 | CCn1ncc(CN(C)C(=O)c2nc(-c3cnc(CO)n3C)nc3ccc(Cl)cc23)c1C [Compound 208] | – | – | 4.70 | –
4.85 | – | 4.60 | 4.70 | CCn1ncc(CN(C)C(=O)c2nc(-c3cc(CNC)n(C)n3)nc3ccc(Cl)cc23)c1C [Compound 380] | – | – | 4.70 | –
7.92 | – | 7.48 | 6.89 | CCn1ncc(CN(C)C(=O)c2nc(-c3cc(NC(=O)CNC)cc(OC)c3)nc3ccc(Cl)cc23)c1C [Compound 384] | – | – | 7.00 | –
